The target of one test is mTORC1 (Homo sapiens (Human), UniProt P42345+P62942). The experiment in a line: mTORC1 inhibition, AlphaLISA of Phospho-p70 S6 kinase (p70S6K pT389) in PC-3 cells. Format: cell-based. The conditions noted are these: inhibition of p70S6K pT389 levels. For orientation: Alpha assays give light when donor and acceptor beads are brought close together.
Another test concerns the target FKBP51 (Homo sapiens (Human), UniProt Q13451). Briefly: SPR assay to determine binding affinity to FKBP51 (direct binding). The following applies: immobilized biotinylated avi-FKBP51. The protocol:
Example 29: SPR Assay to Determine Binding Affinity to FKBP51
Biotinylated avi-FKBP51 was immobilized on a streptavidin chip (Cytiva Series S SA) using a Biacore 8K or 8 k+ (Cytiva). To achieve an immobilization level of 2000 RU, 3 μg/ml biotinylated avi-FKBP51 were injected for 360 sec at a flow rate of 10 μl/min. Rapalogs were diluted in DMSO to 100× working concentration. Each Rapalog was 100-fold diluted in 50 mM HEPES pH 7.5, 150 mM NaCl, 2 mM MgCl2, 1 mM DTT, 0.05% Tween-20 and a serial dilution prepared (8 concentrations, 3-fold dilutions, 0.5-1000 nM). […] The compound dilutions were then injected at 100 uL/min for 120 seconds contact time and with 3600 seconds dissociation time with increasing concentrations. 50 mM HEPES pH 7.5, 150 mM NaCl, 2 mM MgCl2, 1 mM DTT, 0.05% Tween-20, 1% DMSO was used as running buffer. Multi-cycle kinetics data were fit to a 1:1 binding model to measure the association rate ka (1/Ms), the dissociation rate kd (1/s) and the affinity Kd (M).
In general terms: SPR reads the build-up and loss of mass on a sensor chip optically.

A further test has as its target mTORC2 (Homo sapiens (Human), UniProt P42345+P62942). The experiment in a line: mTORC2 inhibition, AlphaLISA of Phospho-AKT (pAKT pS473) in PC3 cells. The class given is cell-based. Here is the method: Example 32: mTORC1 Inhibition, mTORC2 Inhibition, Cell Lysis, AlphaLISA Experiments, and Data Analysis
mTORC2 inhibition was determined via analysis of phosphorylation level of Phospho-AKT (pAKT pS473) with the corresponding AlphaLISA kit (PerkinElmer, Alpha SF Ultra™ Multiplex p-AKT1/2/3(Ser473)/Total AKT1). PC3 cells were plated on 96 well plates in assay medium (DMEM: Ham's F12, basic (CLS Cell Lines Service GmbH, Cat #820400a), supplemented with additional 10% FBS at 1.20E+06 cells/mL and incubated over-night at 37° C., 5% CO2. On the following day, cells were treated with assay medium (10% FBS) containing increasing compound concentrations (12 points at 3-fold dilutions) and incubated for 6 hours at 37° C., 5% CO2. Thereafter, medium was aspirated and cells were rinsed with PBS. In the following, cells were treated with compound dilutions in starvation medium (DMEM: Ham's F12, basic; without FBS) for further 18 h at 37° C., 5% CO2. Then, immediately prior to cell lysis, cells were treated with 12% FBS for 15 min.
After performing experiments according to mTORC1 and mTORC2 protocols, cells were harvested in lysis buffer supplied with the AlphaLISA kits, additionally enriched with Roche cOmplete™ Protease Inhibitor Cocktail (Cat #CO-RO). Thus, cells were lysed using 50 μL of the lysis buffer and incubated for 60 min at 4° C. while shaking. After centrifugation at 4000 rpm for 5 min, experiments were performed according to the AlphaLISA manufacturer's protocol.
Ten microliters of cell lysates were mixed with the acceptor mix. After incubation for 2 h at room temperature, the donor mix was added. After additional incubation at room temperature for 2 hours, AlphaLISA signal was read on PHERAstar® FSX (BMG Labtech) with AlphaPLEX module.
EC50 values were calculated by ExcelFit standard algorithm.

For a further test, the target named is FKBP12 (Homo sapiens (Human), UniProt P62942). Briefly: SPR assay to determine binding affinity to FKBP12 (direct binding). The following applies: immobilized biotinylated avi-FKBP12. Here is the method:
SPR Assay to Determine Binding Affinity to FKBP12.
Biotinylated avi-FKBP12 was immobilized on a streptavidin chip (Cytiva Series S SA) using a Biacore 8K or 8 k+ (Cytiva). To achieve an immobilization level of 1000 RU, 2 μg/ml biotinylated avi-FKBP12 were injected for 100 sec at a flow rate of 10 μl/min. Rapalogs were diluted in DMSO to 100× working concentration. Each Rapalog was 100-fold diluted in 50 mM HEPES pH 7.5, 150 mM NaCl, 2 mM MgCl2, 1 mM DTT, 0.05% Tween-20 and a serial dilution prepared (9 concentrations, 3-fold dilutions, 0.08-500 nM). […] The compound dilutions were then injected at 100 uL/min for 120 seconds contact time in sequence with increasing concentrations. Dissociation was monitored for 3600 seconds. 50 mM HEPES pH 7.5, 150 mM NaCl, 2 mM MgCl2, 1 mM DTT, 0.05% Tween-20, 1% DMSO was used as running buffer. The single-cycle kinetics data were fit to a 1:1 binding model to measure the association rate ka (1/Ms), the dissociation rate kd (1/s) and the affinity Kd (M).

For test [1], the target named is FKBP12 / FRB ternary complex (Homo sapiens (Human), UniProt P42345+P62942). The experiment in a line: SPR assay to characterize ternary complex formation with FKBP12 (FRB binding to rapalog-saturated FKBP12). The conditions noted are these: FRB dilutions with 100 nM rapalog on immobilized FKBP12. Here is the method: Example 30: SPR Assay to Characterize Ternary Complex Formation with FKBP12
(§1) Biotinylated avi-FKBP12 was immobilized on a streptavidin chip (Cytiva Series S SA) using a Biacore 8K or 8 k+ (Cytiva). To achieve an immobilization level of 100 RU, 0.3 μg/ml biotinylated avi-FKBP12 were injected for 80 sec at a flow rate of 10 μl/min. Serial dilution of FRB was prepared (12 concentrations, 3-fold dilutions, 0.00011-20 μM) and supplemented with 100 nM of rapalog. A-B-A injection mode was used to ensure saturation immobilized FKBP12 with respective rapalog. 100 nM solution of the respective rapalog was injected before FRB injection for 120 sec and during dissociation for 420 sec. The FRB dilutions were then injected 120 seconds contact time with increasing concentrations. […] 50 mM HEPES pH 7.5, 150 mM NaCl, 2 mM MgCl2, 1 mM DTT, 0.05% Tween-20, 1% DMSO was used as running buffer at a flow rate of 30 μl/min. The multi-cycle kinetics data were fit to a 1:1 binding model to measure the association rate ka (1/Ms), the dissociation rate kd (1/s) and the affinity Kd (M). In case of fast association and dissociation, steady state affinity analysis following the law of mass action was used to determine the affinity Kd (M).

In test [2] the target is FKBP51 / FRB ternary complex (Homo sapiens (Human), UniProt P42345+Q13451). Briefly: SPR assay to characterize ternary complex formation with FKBP51 (FRB binding to rapalog-saturated FKBP51). The following applies: FRB dilutions with 100 nM rapalog on immobilized FKBP51. Here is the method: Example 31: SPR Assay to Characterize Ternary Complex Formation with FKBP51
as §1, with “Biotinylated avi-FKBP51” for “Biotinylated avi-FKBP12”, “of 200” for “of 100”, “RU, 0.6” for “RU, 0.3”, “biotinylated avi-FKBP51” for “biotinylated avi-FKBP12”, “for 150” for “for 80”

FKBP51, sequence (Q13451 whole entry): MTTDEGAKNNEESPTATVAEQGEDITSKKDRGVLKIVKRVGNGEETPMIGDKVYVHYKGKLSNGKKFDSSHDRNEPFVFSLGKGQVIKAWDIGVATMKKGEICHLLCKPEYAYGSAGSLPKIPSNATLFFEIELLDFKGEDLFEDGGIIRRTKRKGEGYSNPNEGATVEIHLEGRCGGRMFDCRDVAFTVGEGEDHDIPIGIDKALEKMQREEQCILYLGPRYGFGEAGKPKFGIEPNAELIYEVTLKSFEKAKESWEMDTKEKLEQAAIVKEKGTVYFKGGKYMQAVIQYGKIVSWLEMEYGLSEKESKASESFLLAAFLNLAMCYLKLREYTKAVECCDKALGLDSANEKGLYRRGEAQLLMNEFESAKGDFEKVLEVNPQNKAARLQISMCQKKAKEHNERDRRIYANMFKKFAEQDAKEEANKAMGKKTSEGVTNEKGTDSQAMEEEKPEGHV
FKBP12, sequence (P62942 whole entry): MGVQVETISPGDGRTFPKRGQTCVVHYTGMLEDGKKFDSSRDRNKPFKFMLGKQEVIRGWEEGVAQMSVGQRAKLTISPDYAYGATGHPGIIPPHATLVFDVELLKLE

At mTORC1, `COC1CC(CC(C)C2CC(=O)C(C)C=C(C)C(O)C(OC)C(=O)C(C)CC(C)C=CC=CC=C(C)C(NS(=O)(=O)C3CC3)CC3CCC(C)C(O)(O3)C(=O)C(=O)N3CCCCC3C(=O)O2)CCC1O` (mixture of isomers) [Compound 1] returned an IC50 of 0.1 to 0.8 nM. Besides, the Kd on FKBP51 is 10 to 100 nM; at FKBP12, over 1 nM; in test [1], 300 to 800 nM; in test [2], under 300 nM. On mTORC2, the “mTORC2 % inhibition at 1 uM” value is listed as “A (A ≤20% inhibition at 1 micro Molar (uM))”.

Regarding `COCCOCCS(=O)(=O)NC1CC2CCC(C)C(O)(O2)C(=O)C(=O)N2CCCCC2C(=O)OC(C(C)CC2CCC(OCCCS(C)(=O)=O)C(OC)C2)CC(=O)C(C)C=C(C)C(O)C(OC)C(=O)C(C)CC(C)C=CC=CC=C1C` (mixture of isomers) [Compound 4], the concentration for half-maximal inhibition (IC50) on mTORC1 was under 0.1 nM. The Kd on FKBP51 was 10 to 100 nM; on FKBP12, under 0.3 nM; in test [1], under 300 nM; in test [2], 300 to 800 nM. For the same compound, the “mTORC2 % inhibition at 1 uM” value on mTORC2 was “A (A ≤20% inhibition at 1 micro Molar (uM))”.

Compound `COCCOCCS(=O)(=O)NC1CC2CCC(C)C(O)(O2)C(=O)C(=O)N2CCCCC2C(=O)OC(C(C)CC2CCC(OCCO)C(OC)C2)CC(=O)C(C)C=C(C)C(O)C(OC)C(=O)C(C)CC(C)C=CC=CC=C1C` (mixture of isomers) [Compound 7] gave a half-inhibitory concentration (IC50) at mTORC1 of 0.1 to 0.8 nM. The Kd on FKBP51 is 10 to 100 nM; on FKBP12 it was under 0.3 nM; in test [1], under 300 nM; in test [2], 300 to 800 nM. Moreover, the “mTORC2 % inhibition at 1 uM” value at mTORC2 was “B (B>20% and less than 40% inhibition at 1 uM)”.

In turn, `COCCS(=O)(=O)NC1CC2CCC(C)C(O)(O2)C(=O)C(=O)N2CCCCC2C(=O)OC(C(C)CC2CCC(OCCCO)C(OC)C2)CC(=O)C(C)C=C(C)C(O)C(OC)C(=O)C(C)CC(C)C=CC=CC=C1C` (mixture of isomers) [Compound 13] returned an IC50 against mTORC1 of 0.1 to 0.8 nM. Also, the Kd is 10 to 100 nM at FKBP51, under 0.3 nM at FKBP12, 300 to 800 nM in test [1] and over 800 nM in test [2]. For the same compound, the “mTORC2 % inhibition at 1 uM” value at mTORC2 is “A (A ≤20% inhibition at 1 micro Molar (uM))”.

Consider `CCOC(=O)COC1CCC(CC(C)C2CC(=O)C(C)C=C(C)C(O)C(OC)C(=O)C(C)CC(C)C=CC=CC=C(C)C(NS(=O)(=O)CCOC)CC3CCC(C)C(O)(O3)C(=O)C(=O)N3CCCCC3C(=O)O2)CC1OC` (mixture of isomers) [Compound 14], for which the concentration for half-maximal inhibition (IC50) against mTORC1 was over 0.8 nM. For the same compound, the Kd is 10 to 100 nM at FKBP51, 0.3 to 1 nM at FKBP12, over 800 nM in test [1] and over 800 nM in test [2]. Further, at mTORC2, the “mTORC2 % inhibition at 1 uM” value is reported as “A (A ≤20% inhibition at 1 micro Molar (uM))”.

At mTORC1, `COC1CC(CC(C)C2CC(=O)C(C)C=C(C)C(O)C(OC)C(=O)C(C)CC(C)C=CC=CC=C(C)C(NS(=O)(=O)C3CC3)CC3CCC(C)C(O)(O3)C(=O)C(=O)N3CCCCC3C(=O)O2)CCC1OCCCO` (mixture of isomers) [Compound 15] came in with a 50% inhibitory concentration (IC50) of 0.1 to 0.8 nM. The dissociation constant Kd was 10 to 100 nM at FKBP51, under 0.3 nM at FKBP12, under 300 nM in test [1] and over 800 nM in test [2]. Also, the “mTORC2 % inhibition at 1 uM” value at mTORC2 is on record as “A (A ≤20% inhibition at 1 micro Molar (uM))”.

At mTORC1, `COC1CC(CC(C)C2CC(=O)C(C)C=C(C)C(O)C(OC)C(=O)C(C)CC(C)C=CC=CC=C(C)C(OCC3CCC3)CC3CCC(C)C(O)(O3)C(=O)C(=O)N3CCCCC3C(=O)O2)CCC1O` (stereo not drawn) [Compound 37] returned a 50% inhibitory concentration (IC50) of over 0.8 nM. The “mTORC2 % inhibition at 1 uM” value at mTORC2 is “B (B>20% and less than 40% inhibition at 1 uM)”. Moreover, the values for the Kd (at FKBP12; in test [1]; in test [2]) were over 1 nM, 300 to 800 nM and over 800 nM, respectively.

`CO[C@@H]1C[C@H](C[C@@H](C)[C@@H]2CC(=O)[C@H](C)/C=C(\C)[C@@H](O)[C@@H](OC)C(=O)[C@H](C)C[C@H](C)/C=C/C=C/C=C(\C)[C@H](OCC3CCC3)C[C@@H]3CC[C@@H](C)[C@@](O)(O3)C(=O)C(=O)N3CCCC[C@H]3C(=O)O2)CC[C@H]1OCCCS(C)(=O)=O` [Compound 63] returned a 50% inhibitory concentration (IC50) on mTORC1 of over 0.8 nM. On mTORC2, the “mTORC2 % inhibition at 1 uM” value is “C (C≥40% and less than 60% inhibition at 1 uM)”. The figures for the Kd (on FKBP12; in test [1]; in test [2]) were over 1 nM, 300 to 800 nM and over 800 nM, respectively.

Take `CO[C@H]1C[C@@H]2CC[C@@H](C)[C@@](O)(O2)C(=O)C(=O)N2CCCC[C@H]2C(=O)O[C@H]([C@H](C)C[C@@H]2CC[C@@H](O)[C@H](OC)C2)CC(=O)[C@H](C)/C=C(\C)[C@@H](O)[C@@H](OC)C(=O)[C@H](C)C[C@H](C)/C=C/C=C/C=C/1C` [Rapamycin, reference compound]: at FKBP51, the Kd was under 10 nM. On mTORC2 (PC-3, read-out: mTORC2 % inhibition at 1 uM), the inhibition at 1 µM is at least 60%.

A word on the IC50: it is the point on the concentration scale where inhibition reaches its midpoint. The Kd is the equilibrium constant for the complex coming apart. Read a high Kd as a looser complex. For orientation: inhibition means how much of the control response was suppressed.
